Data: patent US20210275493A1, “IMMUNO-ONCOLOGY THERAPY USING ISOFLAVONE COMPOUNDS” (NOXOPHARM LIMITED, priority 2019, published 2021)
“Also recorded” adds a separate entry of the source.

Key:
[1] = tested on: NPC (C17/NPC43+ve) cells, C17 spheroid; experiment: 3D tumor spheroid apoptosis imaging (CellEvent Caspase-3/7); format: cell-based
Protocol: (§1) For the generation of tumor spheroids in 3D, 200 μL/well of cell suspension in culture medium was seeded at cell densities of 20,000 cells/well. NPC (C17/NPC43+ve) cells were dispensed into Nunclon Sphera 96 wells plate (Thermo Fisher Scientific). The Nunclon Sphera surface was designed to cause minimal cell attachment with minimal extracellular matrix protein binding to the plate surfaces. Plates were incubated at 37° C. and 5% CO2 in RPMI supplemented with FBS and ROCK inhibitor.
To mimic in vivo conditions, the cytotoxicity of idronoxil on NPC cells using three-dimensional (3D) tumor cultures was examined. The effect of increasing concentrations of idronoxil was monitored on apoptosis using fluorescent probes (non-toxic CellEvent Caspase-3/7 Green and LysoTracker Deep Red) in combination with bright-field microscopy to perform persistent real-time spheroid imaging. […] When LysoTracker was added to the spheroids, the staining pattern was complementary to that of CellEvent, with the LysoTracker constantly accumulating in the outer and presumably metabolically active layers of the spheroids.

[2] = tested on: NPC cell line spheroids cocultured with PBMCs; experiment: Coculture of NPC tumor spheroids and PBMCs: PBMC infiltration; format: cell-based
Protocol: as §1
(§2) For flow cytometry analyses, 8 wells/condition were seeded. OUT and IN compartments were isolated by first pooling the 8 cocultures wells in eppendorf tubes. Spheroids were gently resuspended and left to sediment to the bottom of the tubes. Supernatant cell suspension constituted the non-infiltrating immune cells (=OUT). These steps were repeated twice with Phosphate Buffer Saline (PBS) in order to separate the spheroids from the non-infiltrating immune cells. Spheroids were then trypsinized to obtain a single cell suspension (=IN) and further analyzed by flow cytometry.
(§3) The interactions between tumor spheroids and PBMCs through heterotypic cocultures was explored. Spheroids were generated from an NPC cell line cocultured with PBMCs obtained from healthy donors that were HLA-matched whenever possible. After coculture, lymphocyte tumor infiltration and tumor cell apoptosis were measured. The cellular compositions within infiltrated tumor spheroids by mechanically separating infiltrating cells (IN) and cells remaining in the medium (OUT) were studied. A description of the coculture experimental protocol is illustrated in FIG. 1.
An increase in PBMCs infiltration in the tumor spheroids upon treatment was detected as early as 2 hours after the beginning of the experiment, while the number of infiltrated cells remained constant in the controls (DMSO) over 72 hours of coculture. […] Moreover, the CellEvent staining was performed on the coculture to confirm the induction of apoptosis and observed that spheroid infiltration was proportional to an active apoptosis process in tumor cells. […]

[3] = tested on: NPC cell lines; experiment: In vitro exposure of NPC cell lines: T-cell chemokine expression; format: cell-based
[4] = tested on: T cells infiltrating C17/NPC43+ve spheroids; experiment: Flow cytometry of spheroid-infiltrating T cells (IN/OUT) in NPC spheroid/PBMC coculture; format: cell-based
Protocol: as §2
Differences in quantitative variables were analyzed by the Mann-Whitney U test when comparing 2 groups. A p value<0.05 was considered as statistically significant.
as §3
These findings support the use of idronoxil to induce immunomodulatory responses, and in combination with conventional chemotherapies, enhance antitumor immunity. […] Finally, additionally to the above findings the inventors detected a significant reduction in PD1^+ expression in total infiltrating memory cells compared to DMSO controls (mean 48.57±5.117 vs. mean 62.06±3.066; p=0.0086; FIG. 3). In contrast, significant up-regulation in PD1^+ expression in naïve infiltrated cells upon idronoxil treatment as compared to DMSO (mean 62.10±7.049 vs. mean 43.57±3.870; p=0.0017) was found.

[5] = tested on: MCF-7 mammary carcinoma spheroids with PBMCs; experiment: MCF-7 spheroid PBMC co-culture: microscopy and FACS; format: cell-based, human
Protocol: (§4) Spheroids were generated using the liquid overlay technique. Therefore, a 96 well cell culture plate (Greiner) was precoated with 1.5% (w/v) agarose. For this, 0.75 g of agarose was diluted in 50 ml PBS and boiled for 15 min in a pressure cooker at full pressure, followed by another 10 min at lowest pressure level. 50 μl of agarose solution was added to each well of the 96 well plate and allowed to cool down at RT (under a cell culture hood). Tumor cells were trypsinized and adjusted to a cell suspension of 25.000 cells/ml in medium (RPMI 1640, 10% FCS, 1% penicillin/streptomycin). The outer wells of the 96 well plates were filled with PBS, and the remaining wells were filled with 200 μl cell suspension. Cell aggregation was triggered by centrifugation of the plate at 500× g, 5 min, RT. Plates were then maintained for 5 days in an incubator (37° C., humidified atmosphere). Medium was changed every two days by careful aspiration. Spheroid size was acquired with a Carl Zeiss Axiovert microscope and diameters were determined using AxioVision 40 software.
(§5) PBMCs were isolated from buffy coats (DRK-Blutspendedients Baden-Würtemberg-Hessen, Institut für Transfusionsmedizin and Immunhämatologie, Frankfurt am Main, Germany) using Bicoll-Hypaque gradients. Two 50 ml Leukosep® tubes (Greiner) per buffy coat were filled with 15 ml lymphocyte separation medium (Sigma Aldrich) and centrifuged at 1000×g, 1 min, RT, to place the solution below the membrane. Afterwards 30 ml human blood from buffy coats was added, tubes were filled up to 50 ml with PBS/2 mM EDTA solution, and centrifuged at 500×g, 45 min, RT without break. After density gradient centrifugation, the intermediate white layer composed of mononuclear cells was transferred into a fresh sterile 50 ml tube and washed twice with PBS/2 mM EDTA. After RBC lysis (RBC lysis buffer: 135 mM NH4Cl, 10 mM NaHCO3, 0.1 mM EDTA; for 4 min at RT, stop with PBS) cells were diluted in RPMI 1640 medium (+10% FCS, 1% penicillin/streptomycin) at 2×10^6 cells/ml.
(§6) PBMCs were activated with 25 μl/ml CD3/CD28 T cell activator cocktail (StemCell Technologies), and 50.000 pre-activated PBMCs/well were added to spheroids. Afterwards, co-cultures were stimulated with 1 μM or 10 μM idronoxil or DMSO for 3 days. After three days, samples were either harvested for downstream analysis or treated again with 1 μM or 10 μM idronoxil or DMSO±10 μg/ml anti-PD-1 antibody (BioXCell) or the isotype control for another 3 days. Spheroid size was acquired with a Carl Zeiss Axiovert microscope and diameters were determined using AxioVision 40 software. Spheroids were harvested by transferring 5 spheroids of each group into FACS tubes (BD Biosciences), followed by centrifugation (500× g, 5 min, 4° C.). After removing the supernatant, 100 μl Accutase (Sigma Aldrich) was added to the spheroids, followed by 15 min incubation at 37° C. and generation of single cell suspensions by shearing the cell suspension repeatedly trough pipetting using 100 μl filter pipette tips. After centrifugation (500×g, 5 min, 4° C.) and removal of supernatant, cells were blocked with 80 μl of 0.5% BSA/PBS and 2 μl FcR-blocking reagent (Miltenyi Biotec) for 15 min on ice. Thereafter, cells were stained with an antibody mix consisting of anti-human CD4 PE-CF594, anti-human CD8 APC-H7, anti-human TCRab FITC, anti-human CD33 BV510, anti-human CD45 AF700, anti-human CD279 APC, and anti-human CD274 BV421 (each from BD Biosciences) antibodies for 20 min on nice in the dark. After washing with 500 μl FACS Flow (BD Biosciences), cells were resuspended in 300 μl FACS Flow, 20 μL absolute count standard (Bangs Laboratory) were added to each sample, and samples were acquired using an LSR II/Fortessa flow cytometer (BD Biosciences). All Antibodies were previously titrated to determine optimal concentrations. Antibody-capturing CompBeads (BD Biosciences) were used to create the multi-color panel compensation matrix. […]

[6] = tested on: A549 lung adenocarcinoma spheroids with PBMCs; experiment: A549 spheroid PBMC co-culture: microscopy and FACS; format: cell-based, human
Protocol: as §4, §5, §6

[7] = Clinical examples: plasma concentration after daily dosing; format: in vivo, human; conditions: 800 mg daily dosage for a period of 7 days
Protocol: An individual presents with metastatic castration resistant prostate cancer. […] The individual has not been prior treated with an […]. The individual is given 800 mg daily dosage of idronoxil for a period of 7 days to establish a plasma concentration of 350 ng/mL of idronoxil. The individual is then administered with an anti-PD-1 antibody according to the product information. The dosage cycle is repeated twice and the individual is assessed for response to anti PD-1 therapy.
An individual presents with advanced melanoma, having been assessed at 12 weeks from first administration of an anti-CTLA-4 antibody as having stable disease and not having achieved a partial response. The individual is given 800 mg daily dosage of idronoxil for a period of 7 days to establish a plasma concentration of 350 ng/mL of idronoxil. The individual is then administered with an anti-CTLA-4 antibody according to the product information. The dosage cycle is repeated twice and the individual is assessed for response to anti-CTLA-4 therapy.

Oc1ccc(C2=Cc3ccc(O)cc3OC2)cc1 [idronoxil, 2H-1-Benzopyran-7-0,1,3-(4-hydroxyphenyl)]
IC50 values, spheroid-derived cells in 3D versus 2D conditions ([1]; 3D vs 2D): comparable | IC50 ([1]; C17 spheroids, 3D culture, apoptosis by CellEvent Caspase-3/7, read-out: IC50 (3D CellEvent dose-response curve)): 2100 nM | intensity of C17 spheroid staining with CellEvent ([1]; increasing concentrations of idronoxil): proportional to idronoxil concentrations | time at which increase in PBMCs infiltration was detected ([2]; after the beginning of the experiment): 2 h | idronoxil-induced PBMC migration upon blockade of CXCL10 ([2]; neutralizing antibodies added to tumor spheroid cultures): significantly reduced | influx of PBMC into the spheroids ([2]; vs DMSO control, up to 72 hours of coculture): significantly increased | expression of T-cell chemokines [3]: expression of the T-cell chemokines CXCL8, 9 and 10 | double-positive (DP) T cells in the tumor structure ([4]; CD3+ populations IN vs OUT, 72 hours): significant increase | PD1+ expression in naïve infiltrated cells (mean) ([4]; DMSO control 43.57±3.870, p=0.0017): 62.10±7.049 | PD1+ expression in total infiltrating memory cells (mean) ([4]; DMSO control 62.06±3.066, p=0.0086): 48.57±5.117 | proportions of CD45RO+ CD27+ memory cells among infiltrating DP T cells ([4]; compared to control): decreased proportions | proportions of CD45RO- CD27+ naïve cells among infiltrating DP T cells ([4]; compared to control): increased proportions | CD62L expression of tumor-infiltrating DP T cells ([4]; compared to control, CCR7 not reduced): pronounced reduction | expression of PD1 on CD4+ T cells ([5]; 10 μM, day 3, FACS): reduces | expression of PDL1 on myeloid cells ([5]; 10 μM, day 3, FACS): reduces | number of myeloid cells ([5]; 10 μM, day 3, FACS): reduces | 3D spheroid size ([5]; 10 μM, day 6): reduced | immune function of the cells (cluster formation) ([5]; 10 μM, day 6): maintained | number of tumor cells ([5]; 10 μM, day 6, FACS): reduces | 3D spheroid size ([5]; day 3): reduced | immune activation (cluster formation) ([5]; day 3): induced or maintained | expression of PD1 on both CD4+ and CD8+ T cells ([5]; day 6, especially at 10 μM, FACS): reduces | PDL1 expression by myeloid cells ([5]; day 6, idronoxil in general, FACS): strongly reduces | 3D spheroid size ([6]; 1 μM, day 6): reduced | 3D spheroid size ([6]; 10 μM, day 3): reduces | immune activation (cluster formation) ([6]; 10 μM, day 3): induces or maintains | expression of PD1 on CD8+ T cells ([6]; 10 μM, day 3, FACS): reduced | expression of PDL1 on myeloid cells ([6]; 10 μM, day 3, FACS): reduced | immune activation (cluster formation) ([6]; 10 μM, day 6): maintains | invasion of the cells (into agarose) ([6]; 10 μM, day 6): reduced; also recorded: prevents | spheroid size ([6]; 10 μM, day 6): reduced | expression of PD1 on both CD4+ and CD8+ T cells ([6]; 10 μM, day 6, FACS): reduces | expression of PDL1 on myeloid cells ([6]; 10 μM, day 6, FACS): reduces | immune cell infiltrates ([6]; 10 μM, day 6, FACS): increased | plasma concentration of idronoxil [7]: 350 ng/mL
